Test results: US20250090437A1, “COSMETIC COMPOUNDING AGENT, COSMETIC AND PRODUCTION METHOD THEREOF” (MIYOSHI OIL & FAT CO., LTD., priority 2019, published 2025)

Experiments:
[1] = Water retention property test 1; format: physicochemical; settings: 80 wt % aqueous solution
Procedure: A moisture rate after 24 hours was again measured (post-test moisture rate: B), followed by using the formula below to calculate a rate of reduction in moisture so as to evaluate the water retention property. • Pre-test moisture rate: A (%) • Post-test moisture rate: B (%)

[2] = Water confinement property test (barrier property); format: physicochemical; settings: 80 wt % aqueous solution, 0.01 mL/cm^2 on filter paper, 40° C. and 25% RH, 24 hours
Procedure: Next, 20.0 g of an ion-exchange water was put into a 40 mL pierce vial bottle (by AS ONE Corporation.), followed by removing an inner lid (rubber plug) of the pierce vial bottle, placing on the pierce vial bottle the filter paper to which each sample had been applied, and then plugging the bottle with an outer lid.
Further, Wm1, Wm2, Sm1 and Sm2 in the formula below respectively represent the following numerical values.
Wm1: Weight of ion-exchange water in vial before storage (using filter paper to which only ion-exchange water had been applied)
Wm2: Weight of ion-exchange water in vial after 24 hours (using filter paper to which only ion-exchange water had been applied)
Sm1: Weight of ion-exchange water in vial before storage (using filter paper to which sample had been applied)
Sm2: Weight of ion-exchange water in vial after 24 hours (using filter paper to which sample had been applied)

[3] = Stability of ascorbic acid-based compound (coloration); format: physicochemical; design: key to Appearance (Visual evaluation) Immediately after preparatiom / Appearance (Visual evaluation) After 7 days 50° C. / Appearance (Visual evaluation) After 7 days Room temperature: ⊚: Colorless and transparent; ∘: Light yellow; Δ: Yellow; x: Brown to black; settings: 33 wt % aqueous solution
Procedure: With regard to a 33 wt/% aqueous solution of each of the compounds C46, C49 and C98 to C100 and water, a stability in an aqueous solution condition was visually evaluated. An evaluation method was such that there was prepared a 33 wt % aqueous solution of each of the compounds C46, C49 and C98 to C100, the aqueous solution was then left to stand still at room temperature or in a thermostatic bath of 50° C. for seven days; coloration before and after the still standing was visually confirmed. The evaluation criteria were as follows. • ⊚: Colorless and transparent • ∘: Light yellow • Δ: Yellow • x: Brown to black

Tyrosinase = test: Whitening effect: tyrosinase activity inhibition test; format: biochemical; settings: compound concentration 500 μg/mL; substrate D, L-DOPA; room temperature for a week
Procedure: With regard to a 50 wt/% aqueous solution of each of the compounds C46, C49 and C101, a whitening effect was confirmed via a tyrosinase activity inhibition test. Tyrosinase (by SIGMA-ALDRICH) was dissolved with a 67 mM phosphate buffer solution (pH 6.8) so that the concentration of the tyrosinase would be 0.2 mg/mL, thereby obtaining an enzyme solution. Further, a substrate solution was prepared by dissolving 3 mg of D, L-DOPA (by Tokyo Chemical Industry Co., Ltd.) into 10 mL of the 67 mM phosphate buffer solution. […] Next, 80 μL of the substrate solution was quickly added to the preincubated solution, and an absorbance (A1) at 475 nm immediately after the addition of the substrate solution was then measured. Further, after leaving this solution to stand still at room temperature for a week, an absorbance (A2) at 475 nm was again measured.
In addition, as a control, there were prepared samples containing an ultrapure water instead of the compounds of the working examples; and in a similar manner as above, there were measured an absorbance (A3) at 475 nm immediately after the addition of the substrate, and an absorbance (A4) at 475 nm after leaving the solution at room temperature for a week.
An inhibition rate was calculated with the following formula.

[4] = Water retention property and adherability with respect to healthy hair; design: species or system human; settings: for Compound adhesion rate / Post-test moisture rate: healthy hair immersed 60 min in 80 wt % aqueous solution; for Post-test moisture rate: after 24 hours at 40° C., pre-test 7.6%; for Post-test moisture rate / Rate of reduction in moisture: 35 to 40% RH; for Rate of reduction in moisture: 80 wt % aqueous solution, 24 hours at 40° C.
Procedure: In the following evaluations, a human black hair produced by Beaulax Co., Ltd was used as a healthy hair. A damaged hair was prepared by repeatedly having the healthy hair permed and bleached three times.
An 80 wt % aqueous solution of each of the compounds B1 to B26 (content in terms of anhydride in the cases of the compounds B1 to B23) was prepared, followed by using a Karl Fischer moisture meter (KF-200 by Mitsubishi Chemical Analytech Co., Ltd.) to confirm that a moisture rate was 20.0 wt %. As a healthy hair, there was used a chemically untreated healthy hair (human black hair by Beaulax Co., Ltd). The moisture rate (pre-test moisture rate A) of the hair was measured by an infrared moisture meter (by Kett Electric Laboratory).
After immersion, the hair was taken out, and KimWipes were then used to wipe off the compound until a change in weight was no longer observed, followed by measuring the weight of the hair (post-test hair weight B). The hair from which the compound had been wiped off was then placed into a thermo-hygrostat set to 40° C. and 35 to 40% RH. A moisture rate after 24 hours (post-test moisture rate B) was then measured, followed by calculating a rate of reduction in moisture with the following formula. Likewise, instead of the 80 wt % aqueous solution, evaluation was also performed in a similar manner using only an ion-exchange water (comparative example B4).
Further, an adhesion rate of the compound adhering to the hair was calculated with the following formula. […]

[5] = Water retention property and adherability with respect to damaged hair; design: species or system human; settings: concentration 50 wt % (Table 11)
Procedure: A damaged hair was prepared by the following method.
A damaged hair was produced by performing these perm treatment and bleach treatment three times.

[6] = Sensory evaluation on healthy hair after using organic ammonium salt; design: species or system human; key to When washing: Finger-combing capability: ⊚: Superior; ∘: Favorable; Δ: No change; x: Inferior; settings: healthy hair, 80 wt % aqueous solution
Procedure: (§1) Here, an 80 wt % aqueous solution(s) of each of the compounds B11, B12, B23, B26 and B27 (content in terms of anhydride in the cases of the compounds B11, B12 and B23) were prepared and used as samples. Next, one minute was spent in evenly applying 10.0 g of each sample to a bundle of the healthy hairs weighing about 10 g, using a brush; the bundle of the healthy hairs was then left for 5 min. After leaving it for 5 min, the bundle of the healthy hairs was rinsed with a hot water of 40° C. for 30 sec, and evaluated was a finger-combing capability at the time of performing washing. The hair bundle that had been rinsed was then dried with a towel and further subjected to air drying for a day, followed by evaluating items such as flexibility, finger-combing capability, texture, elasticity/resilience (feeling by bare hands), volume increase (visual evaluation), cohesiveness, moist feeling, surface smoothness, non-stickiness (feeling by bare hands) and gloss (visual evaluation), from the perspective of superiority or inferiority to a test hair bundle(s) uncoated with the sample.

[7] = Sensory evaluation on damaged hair after using organic ammonium salt; design: species or system human; settings: damaged hair, 80 wt % aqueous solution
Procedure: as §1, with “damaged” for “healthy”, “as” for “as flexibility, finger-combing capability, texture,”, “hands),” for “hands), volume increase (visual evaluation),”, “cohesiveness,” for “cohesiveness, moist feeling,”, “smoothness” for “smoothness, non-stickiness (feeling by bare hands)”, “non-waviness,” for “gloss (visual evaluation),”

[8] = Affinity to hair (contact angle); settings: 50 wt % aqueous solution; condition B (hair iron, 160° C.)
[9] = Sensory evaluation on healthy hair after using shampoo agent containing organic ammonium salt; design: species or system human; settings: shampoo agent containing 3.0% by mass of the compound; treated 10 times
Procedure: (§2) Next, the mixture was cooled to a temperature of 30° C. or lower, and a purified water of an evaporated amount was then added thereto so that the whole hair treatment composition would be 100% by mass, followed by uniformly mixing them so as to obtain a hair treatment composition(s). The pH level of the hair treatment composition was adjusted to pH 6.0 by adding a citric acid or sodium hydroxide.
About 5 g of the healthy hair was taken and dipped into 350 ml of a seven-time dilute aqueous solution of each of the abovementioned hair treatment compositions (shampoo agents) at 35 to 40° C. so as to be washed. The healthy hair was then subjected to a rinsing treatment five times using 500 ml of a warm water of 35 to 40° C., followed by drying the same at 80° C., and then performing air drying at 25° C. Such series of treatment involving hair washing, rinsing and drying was repeated 10 times to then evaluate a cohesiveness of the hair, a moist feeling of the hair, a gloss of the hair, a surface smoothness of the hair and a non-stickiness on the surface of the hair, after performing air drying.

[10] = Sensory evaluation on damaged hair after using shampoo agent containing organic ammonium salt; design: species or system human; settings: shampoo agent containing the compound; treated 10 times
Procedure: as §2
The damaged hair was repeatedly treated 10 times in a similar manner as 3-1; evaluated were a cohesiveness of the hair, surface smoothness of the hair and waviness of the hair after performing air drying.

[11] = Sensory evaluation on healthy hair after using conditioner containing organic ammonium salt; design: species or system human; settings: conditioner containing 3.0% by mass of the compound
Procedure: Here, 4.5% by mass of a stearyl alcohol (KALCOL 8688 by Kao Corporation), 2.0% by mass of a behenyl alcohol (KALCOL 220-80 by Kao Corporation) and 0.5% by mass of a phenoxyethanol (Hisolve EPH by TOHO Chemical Industry Co., Ltd.) were mixed together and heated to 75° C. to obtain a liquid A. Further, 3.0% by mass of a behentrimonium chloride (CATINAL DC-80 by TOHO Chemical Industry Co., Ltd.), 5.0% by mass of dipropylene glycol and 3.0% by mass of each of the compounds B11, B23, B26, B27 and B28 (content in terms of anhydride in the cases of the compounds B11 and B23) were added together, followed by adding a purified water thereto, and then melting them at 80° C., thus obtaining a liquid B. The liquid B was then gradually added to the liquid A, and stirring was performed at 75° C. for 20 min. Next, the mixture was cooled to a temperature of 40° C. or lower, and a purified water of an evaporated amount was then added thereto so that the whole hair treatment composition would be 100% by mass, followed by uniformly mixing them so as to obtain a hair treatment composition(s).
About 5 g of the healthy hair was dipped into and kept immersed in 150 g of a seven-time dilute aqueous solution of each of the abovementioned hair treatment compositions (conditioners) at 40° C. for 30 min. […] After air drying, a combing capability, cohesiveness and non-stickiness of the hair were evaluated.

[12] = Surface resistance measurement of organic ammonium salt; settings: 0.7 g applied to polyurethane artificial leather; dried, coating in solid state

## NC(CO)(CO)CO.O=C1OC(C(O)CO)C(O)=C1O (stereo not drawn) [Compound C49]
[1]
  Water retention property test 1 Pre-test moisture rate: 20.0%
[1]; 24 hours at 40° C. and 25% RH
  Water retention property test 1 Post-test moisture rate: 19.4%
  Water retention property test 1 Rate of reduction in moisture: 3.0%
[2]
  Water evaporation inhibition rate: 32.19%
[3]
  Appearance (Visual evaluation) After 7 days 50° C.: Δ
  Appearance (Visual evaluation) After 7 days Room temperature: ○
  Appearance (Visual evaluation) Immediately after preparatiom: ⊚
[3]; room temperature or 50° C., seven days
  Coloration of aqueous solution (stability): significant improvements in coloration
Tyrosinase
  Tyrosinase activity inhibition rate: 95.8%

## CC(O)C(=O)O (stereo not drawn) [lactic acid, reference compound]
[4]; healthy hair, concentration 50 wt % (Table 11)
  Hair adhesion rate: 1.1%
[5]
  Hair adhesion rate: 1.1%

## NC(CO)(CO)CO.O=C(O)CO [Compound B12]
[4]
  Compound adhesion rate: 1.6%
  Post-test moisture rate: 5.4%
[4]; healthy hair
  Rate of reduction in moisture: 29%
[6]
  After air drying: Cohesiveness of hair: ◯~Δ
  After air drying: Elasticity/Resilience: ◯~Δ
  After air drying: Finger-combing capability: ◯~Δ
  After air drying: Flexibility: ◯~Δ
  After air drying: Gloss of hair: ◯~Δ
  After air drying: Moist feeling: ◯~Δ
  After air drying: Non-stickiness of hair surface: ◯~Δ
  After air drying: Smoothness of hair surface: ◯~Δ
  After air drying: Texture: ◯~Δ
  After air drying: Volume increase: ◯~Δ
[6]; versus uncoated hair bundle
  When washing: Finger-combing capability: ⊚
[7]
  After air drying: Cohesiveness of hair: ◯~Δ
  After air drying: Elasticity/Resilience: ◯~Δ
  After air drying: Smoothness of hair surface: ◯~Δ
  After air drying: Suppression of hair waviness: ◯
  When washing: Finger-combing capability: ◯~Δ
[8]
  Contact angle of water droplet on treated hair: infiltrated the hair

## CC(N)(CO)CO.O=C1O[C@H]([C@@H](O)CO)C(O)=C1O [Compound B7]
[4]
  Compound adhesion rate: 2.4%
  Post-test moisture rate: 6.0%
[4]; healthy hair
  Rate of reduction in moisture: 21%
[9]
  Sensory evaluation of healthy hair after shampoo agent (cohesiveness, moist feeling, gloss, smoothness, non-stickiness): favorable

## CC(O)C(=O)[O-].[Na+] (stereo not drawn) [Compound B28, sodium lactate]
[9]
  Sensory evaluation of healthy hair after shampoo agent (cohesiveness, moist feeling, gloss, smoothness, non-stickiness): inferior in general
[10]
  Sensory evaluation of damaged hair after shampoo agent (cohesiveness, surface smoothness, waviness): inferior surface smoothness
[11]
  Combing capability, cohesiveness and non-stickiness of healthy hair after conditioner: poor hair cohesiveness
[12]
  Surface resistance value: 2×10^8 Ω
